This data set is described as follows: xn = mol fraction of the nth substance listed. The following applies: 101.3 kPa.

What is called viscosity is the internal friction of a fluid under shear. Turning to `c1c[nH]cn1` + CC(C)C[P+](C)(CC(C)C)CC(C)C.Cc1ccc(S(=O)(=O)[O-])cc1, the viscosity is, setting by setting: (303.09 K, x2 = 0.5) 357 mPa·s; (323.07 K, x2 = 0.5) 100 mPa·s; (333.11 K, x2 = 0.5) 63 mPa·s; (343.1 K, x2 = 0.5) 43.3 mPa·s; (353.08 K, x2 = 0.5) 32.8 mPa·s.
As to `c1c[nH]cn1` + CCCCCC[N+]1(C)CCCC1.O=S(=O)([N-]S(=O)(=O)C(F)(F)F)C(F)(F)F, the viscosity (323.15 K, x2 = 0.5) is listed as 23.8 mPa·s and the viscosity (333.15 K, x2 = 0.5) was 16 mPa·s.
For `c1c[nH]cn1` + CCCC[N+]1(C)CCCC1.O=S(=O)([N-]S(=O)(=O)C(F)(F)F)C(F)(F)F, the viscosity was 18.6 mPa·s (323.15 K, x2 = 0.5); 13.5 mPa·s (333.15 K, x2 = 0.5); 9.7 mPa·s (343.15 K, x2 = 0.5); 7.9 mPa·s (353.15 K, x2 = 0.5).
Take `CCCC[P+](CCCC)(CCCC)CCCC.CS(=O)(=O)[O-]` + c1c[nH]cn1: the viscosity by setting is: (303.05 K, x1 = 0.5) 176 mPa·s; (323.05 K, x1 = 0.5) 61 mPa·s; (333.05 K, x1 = 0.5) 40.2 mPa·s; (343.05 K, x1 = 0.5) 29.5 mPa·s.

The values above are taken from a compilation of properties of binary mixtures (doi:10.1007/s10953-018-0732-1).
